Residues, ends and D or L forms follow the SMILES beside them.

Series [1] deals with autologous target cells pulsed with peptide HBc11-27. The series is described as follows: Immunodominance of the HBc11-27 CTL epitope in HLA-A2 positive subjects. It is filed as cell-based, human. To be noted: one of the four chronic patients. From the text:
To assess the immunodominance in the HLA-A2 haplotype of the CTL epitope(s) contained in peptide HBc11-27, eight additional subjects with self-limited acute hepatitis B infection, four patients with chronic active hepatitis B, and eight healthy subjects without evidence of previous exposure to HBV (all HLA-A2 positive) were repeatedly tested.
Patient to patient variations in the pattern of response to the peptide were observed during the course of the illness. The cytolytic activity was generally detectable during the icteric phase when transaminase values were high; in some patients the response was long-lasting, being still detectable when GPT levels had already become normal, and in other subjects the lytic activity became undetectable 2 or 3 weeks after the transaminase peak when GPT levels were still slightly altered.

For series [2], the system named is HBV core specific CTL from PBMC of patients with acute hepatitis B. To be noted: patient.

Take `CC(C)C[C@H](NC(=O)[C@H](CC(C)C)NC(=O)[C@H](CCC(=O)O)NC(=O)[C@@H](NC(=O)[C@@H](NC(=O)[C@H](C)N)[C@@H](C)O)C(C)C)C(=O)N[C@@H](CO)C(=O)N[C@@H](Cc1ccccc1)C(=O)N[C@@H](CC(C)C)C(=O)N1CCC[C@H]1C(=O)N[C@@H](CO)C(=O)N[C@@H](CC(=O)O)C(=O)N[C@@H](Cc1ccccc1)C(=O)N[C@@H](Cc1ccccc1)C(=O)N1CCC[C@H]1C(=O)N[C@@H](CO)C(=O)N[C@H](C(=O)O)C(C)C` [HBc11-27] (H-ATVELLSFLPSDFFPSV-OH): in series [1], the “cytotoxicity against the relevant peptide sequence” value is reported as “detectable, though very low levels of cytotoxicity”.

On to `CC(C)C[C@H](NC(=O)[C@@H](NC(=O)[C@H](CO)NC(=O)[C@@H](N)CC(C)C)[C@@H](C)O)C(=O)N1CCC[C@H]1C(=O)N[C@@H](CCC(=O)O)C(=O)N[C@H](C(=O)N[C@H](C(=O)N[C@H](C(=O)N[C@H](C(=O)N[C@@H](CCCNC(=N)N)C(=O)N[C@@H](CCCNC(=N)N)C(=O)N[C@@H](CCCNC(=N)N)C(=O)NCC(=O)N[C@@H](CCCNC(=N)N)C(=O)N[C@@H](CO)C(=O)O)C(C)C)C(C)C)[C@@H](C)O)[C@@H](C)O` [140-155], for which, in series [2], the “cytotoxic activity of unstimulated PBMC against autologous B-LCL fed with peptide” value is on record as “No cytotoxic activity was observed”.

(Values after patent US5840303A, “Peptides for inducing cytotoxic T lymphocyte responses to hepatitis B virus” (The Scripps Research Foundation, priority 1995, dated 1998).)
